Results taken from patent US11707462B2, “Checkpoint kinase 1 (CHK1) inhibitors and uses thereof” (Boundless Bio, Inc., priority 2021, dated 2023).

Experiments:
p-CHK1 (Ser345) = assay: AlphaLISA SureFire Ultra p-CHK1 (Ser345) cellular assay in HT29 cells; assay type: cell-based; conditions: Homo sapiens, HT-29, 16 h at 37° C.
Experimental: Example B: AlphaLisa Cellular Assay
Compound activity in cells was measured using an AlphaLISA® SureFire® Ultra™ p-CHK1 (Ser345) assay (Perkin Elmer, catalog no. ALSU-PCHK1-A10K). HT29 cells were cultured in McCoy 5A medium with 10% FBS and 1% penicillin-streptomycin and seeded to 96-well plates (Corning, catalog no. 3599). Compounds were serially diluted in DMSO over a 10-point dose range with 3-fold dilution and to each well containing cells was added compound solution. Plates were centrifuged at 1000 rpm for 30 seconds. Plates were incubated at 37° C. for 16 h. Supernatant was removed by flicking the plate against a paper towel. Wells were washed once with PBS solution. To each well was added freshly prepared lysis buffer and plates were agitated on a plate shaker at 400 rpm for 30 min. The 96-well cell plates were centrifuged at 1500 rpm for 1 minute. From each well was transferred 10 μL of the lysates to a 384-well Optiplate™ (Perkin Elmer, catalog no. 6007290). To each well was added Acceptor Mix (5 μL) and the plates were sealed and wrapped in foil. Plates were agitated on a plate shaker for 2 minutes, then incubated at room temperature for 1 h. To each well was added Donor Mix (5 μL) and the plates were sealed and wrapped in foil. Plates were agitated on a plate shaker for 2 minutes, then incubated at room temperature for 1 h. AlphaLisa signal was read on an EnVision multimode plate reader (Perkin Elmer). Data were fit to dose-response curves using XLfit (IDBS, Surrey, UK) or Prism (GraphPad Software, La Jolla, Calif., US) to calculate IC50 values for each compound tested.

[1] = molecular target: T1, Full-length human Chk1 protein (Homo sapiens, UniProt O14757); assay: Kinase HTRF biochemical assay (HTRF KinEASE), Chk1 enzyme activity; conditions: full-length human Chk1, ATP 1 mM, 60 minutes at room temperature
T1 construct: purchased Carna Biosciences, Inc. 02-117
T1 sequence (O14757 1-476): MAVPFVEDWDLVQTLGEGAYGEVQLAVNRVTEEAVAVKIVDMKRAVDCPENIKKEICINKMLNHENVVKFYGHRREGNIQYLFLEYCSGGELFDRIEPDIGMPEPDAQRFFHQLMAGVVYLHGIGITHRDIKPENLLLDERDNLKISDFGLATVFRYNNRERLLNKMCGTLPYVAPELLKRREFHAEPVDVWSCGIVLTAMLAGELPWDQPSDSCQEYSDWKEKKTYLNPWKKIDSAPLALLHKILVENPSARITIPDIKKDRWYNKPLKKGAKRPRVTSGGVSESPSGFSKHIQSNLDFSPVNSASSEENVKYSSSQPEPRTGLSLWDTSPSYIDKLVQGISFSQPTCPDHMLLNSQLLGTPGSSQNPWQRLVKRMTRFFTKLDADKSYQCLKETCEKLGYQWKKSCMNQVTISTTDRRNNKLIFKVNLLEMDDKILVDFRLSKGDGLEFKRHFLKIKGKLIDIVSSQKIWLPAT
In short: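 Full-length human Chk1 (0.012 ng/μL) in buffer with 5 mM MgCl2 and 1 mM DTT, preincubated with compound 10 min at room temperature; reaction with 120 nM biotinylated STK substrate 1 and 1 mM ATP for 60 min at room temperature. HTRF detection via cryptate antibody/streptavidin-XL665; IC50 from 10-point duplicate curves.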

SMILES | IC50 (p-CHK1 (Ser345)) [nM] | IC50 [1] [nM]
COc1cc(Cl)cc(O[C@@H]2CC[C@H](N)C2)c1-c1cc(Nc2cnc(C#N)cn2)n[nH]1 [Example 1-29, 5-((5-(2-(((1R,3S)-3-aminocyclopentyl)oxy)-4-chloro-6-methoxyphenyl)-1H-pyrazol-3-yl)amino)pyrazine-2-carbonitrile] | 100 to 500 | ≤ 10
N#Cc1cnc(Nc2cc(-c3c(OCC4CC4)cccc3O[C@H]3C[C@H](N)C3)[nH]n2)cn1 [Example 1-32, 5-((5-(2-((1r,3r)-3-aminocyclobutoxy)-6-(cyclopropylmethoxy)phenyl)-1H-pyrazol-3-yl)amino)pyrazine-2-carbonitrile] | 500 to 1000 | 10 to 100
CN[C@H]1C[C@H](Oc2ccccc2-c2cc(Nc3cnc(C#N)cn3)n[nH]2)C1 [Example 1-38, 5-((5-(2-((1r,3r)-3-(methylamino)cyclobutoxy)phenyl)-1H-pyrazol-3-yl)amino)pyrazine-2-carbonitrile] | 100 to 500 | 10 to 100
COc1cccc(O[C@@H]2CC[C@H](N)C2)c1-c1cc(Nc2cnc(C#N)c(C)n2)n[nH]1 [Example 1-39, 5-((5-(2-(((1R,3S)-3-aminocyclopentyl)oxy)-6-methoxyphenyl)-1H-pyrazol-3-yl)amino)-3-methylpyrazine-2-carbonitrile] | 500 to 1000 | 10 to 100
Cc1nc(Nc2cc(-c3ccccc3O[C@@H]3CC[C@H](N)C3)[nH]n2)cnc1C#N [Example 1-40, 5-((5-(2-(((1R,3S)-3-aminocyclopentyl)oxy)phenyl)-1H-pyrazol-3-yl)amino)-3-methylpyrazine-2-carbonitrile] | > 1000 | 100 to 500
COc1cc(F)c(-c2cc(Nc3cnc(C#N)cn3)n[nH]2)c(O[C@@H]2CC[C@H](N)C2)c1 [Example 1-41, 5-((5-(2-(((1R,3S)-3-aminocyclopentyl)oxy)-6-fluoro-4-methoxyphenyl)-1H-pyrazol-3-yl)amino)pyrazine-2-carbonitrile] | 100 to 500 | ≤ 10
N#Cc1cnc(Nc2cc(-c3ccccc3O[C@H]3CC[C@@H](N)CC3)[nH]n2)cn1 [Example 1-50, 5-((5-(2-(((1s,4s)-4-aminocyclohexyl)oxy)phenyl)-1H-pyrazol-3-yl)amino)pyrazine-2-carbonitrile] | > 1000 | 100 to 500
N#Cc1cnc(Nc2cc(-c3ccccc3O[C@H]3CC[C@H](N)CC3)[nH]n2)cn1 [Example 1-51, 5-((5-(2-(((1r,4r)-4-aminocyclohexyl)oxy)phenyl)-1H-pyrazol-3-yl)amino)pyrazine-2-carbonitrile] | > 1000 | 10 to 100
N#Cc1cnc(Nc2cc(-c3ccccc3O[C@@H]3CC[C@H](N)C3)[nH]n2)cn1 [Example 1-52, 5-((5-(2-(((1R,3S)-3-aminocyclopentyl)oxy)phenyl)-1H-pyrazol-3-yl)amino)pyrazine-2-carbonitrile] | 100 to 500 | 10 to 100
N#Cc1cnc(Nc2cc(-c3ncccc3O[C@H]3C[C@H](N)C3)[nH]n2)cn1 [Example 1-55, 5-((5-(3-((1r,3r)-3-aminocyclobutoxy)pyridin-2-yl)-1H-pyrazol-3-yl)amino)pyrazine-2-carbonitrile] | 500 to 1000 | 10 to 100
Cc1ccc(O[C@H]2CC[C@H](N)CC2)c(-c2cc(Nc3cnc(C#N)cn3)n[nH]2)n1 [Example 1-56, 5-((5-(3-(((1r,4r)-4-aminocyclohexyl)oxy)-6-methylpyridin-2-yl)-1H-pyrazol-3-yl)amino)pyrazine-2-carbonitrile] | 100 to 500 | ≤ 10
CN[C@H]1C[C@H](Oc2ccc(C)nc2-c2cc(Nc3cnc(C#N)cn3)n[nH]2)C1 [Example 1-61, 5-((5-(6-methyl-3-((1r,3r)-3-(methylamino)cyclobutoxy)pyridin-2-yl)-1H-pyrazol-3-yl)amino)pyrazine-2-carbonitrile] | 100 to 500 | 10 to 100

More lines, now with the values ahead:

IC50 (p-CHK1 (Ser345)) [nM] | IC50 [1] [nM] | SMILES
≤ 50 | ≤ 10 | COc1cc(F)cc(O[C@@H]2CC[C@H](N)C2)c1-c1cc(Nc2cnc(C#N)cn2)n[nH]1 [Example 1-28, 5-((5-(2-(((1R,3S)-3-aminocyclopentyl)oxy)-4-fluoro-6-methoxyphenyl)-1H-pyrazol-3-yl)amino)pyrazine-2-carbonitrile]
50 to 100 | 10 to 100 | CN[C@@H]1CC[C@@H](Oc2ccccc2-c2cc(Nc3cnc(C#N)cn3)n[nH]2)C1 [Example 1-42, 5-((5-(2-(((1R,3R)-3-(methylamino)cyclopentyl)oxy)phenyl)-1H-pyrazol-3-yl)amino)pyrazine-2-carbonitrile]
≤ 50 | 10 to 100 | CN[C@@H]1CC[C@@H](Oc2cccc(F)c2-c2cc(Nc3cnc(C#N)cn3)n[nH]2)C1 [Example 1-43, 5-((5-(2-fluoro-6-(((1R,3R)-3-(methylamino)cyclopentyl)oxy)phenyl)-1H-pyrazol-3-yl)amino)pyrazine-2-carbonitrile]
≤ 50 | ≤ 10 | N#Cc1cnc(Nc2cc(-c3c(F)cccc3O[C@@H]3CC[C@@H](N)C3)[nH]n2)cn1 [Example 1-44, 5-((5-(2-(((1R,3R)-3-aminocyclopentyl)oxy)-6-fluorophenyl)-1H-pyrazol-3-yl)amino)pyrazine-2-carbonitrile]
50 to 100 | ≤ 10 | CN[C@H]1CC[C@H](Oc2cccc(OC)c2-c2cc(Nc3cnc(C#N)cn3)n[nH]2)CC1 [Example 1-45, 5-((5-(2-methoxy-6-(((1r,4r)-4-(methylamino)cyclohexyl)oxy)phenyl)-1H-pyrazol-3-yl)amino)pyrazine-2-carbonitrile]
≤ 50 | ≤ 10 | CN[C@H]1CC[C@@H](Oc2cccc(OC)c2-c2cc(Nc3cnc(C#N)cn3)n[nH]2)C1 [Example 1-46, 5-((5-(2-methoxy-6-(((1R,3S)-3-(methylamino)cyclopentyl)oxy)phenyl)-1H-pyrazol-3-yl)amino)pyrazine-2-carbonitrile]
≤ 50 | ≤ 10 | COc1cccc(OC2CCC(N)C2C)c1-c1cc(Nc2cnc(C#N)cn2)n[nH]1 (centres unmarked) [Example 1-47, 5-((5-(2-((3-amino-2-methylcyclopentyl)oxy)-6-methoxyphenyl)-1H-pyrazol-3-yl)amino)pyrazine-2-carbonitrile]
50 to 100 | ≤ 10 | COc1cccc(O[C@@H]2CC[C@@H](N(C)C)C2)c1-c1cc(Nc2cnc(C#N)cn2)n[nH]1 [Example 1-48, 5-((5-(2-(((1R,3R)-3-(dimethylamino)cyclopentyl)oxy)-6-methoxyphenyl)-1H-pyrazol-3-yl)amino)pyrazine-2-carbonitrile]
≤ 50 | ≤ 10 | COc1cccc(O[C@@H]2CC[C@H](N(C)C)C2)c1-c1cc(Nc2cnc(C#N)cn2)n[nH]1 [Example 1-49, 5-((5-(2-(((1R,3S)-3-(dimethylamino)cyclopentyl)oxy)-6-methoxyphenyl)-1H-pyrazol-3-yl)amino)pyrazine-2-carbonitrile]
50 to 100 | ≤ 10 | N#Cc1cnc(Nc2cc(-c3ccccc3O[C@@H]3CC[C@@H](N)C3)[nH]n2)cn1 [Example 1-53, 5-((5-(2-(((1R,3R)-3-aminocyclopentyl)oxy)phenyl)-1H-pyrazol-3-yl)amino)pyrazine-2-carbonitrile]
50 to 100 | ≤ 10 | Cc1ccc(O[C@@H]2CC[C@H](N)C2)c(-c2cc(Nc3cnc(C#N)cn3)n[nH]2)n1 [Example 1-57]
≤ 50 | ≤ 10 | N#Cc1cnc(Nc2cc(-c3ncccc3O[C@@H]3CC[C@@H](N)C3)[nH]n2)cn1 [Example 1-58, 5-((5-(3-(((1R,3R)-3-aminocyclopentyl)oxy)pyridin-2-yl)-1H-pyrazol-3-yl)amino)pyrazine-2-carbonitrile]
≤ 50 | ≤ 10 | Cc1ccc(O[C@@H]2CC[C@@H](N)C2)c(-c2cc(Nc3cnc(C#N)cn3)n[nH]2)n1 [Example 1-60, 5-((5-(3-(((1R,3R)-3-aminocyclopentyl)oxy)-6-methylpyridin-2-yl)-1H-pyrazol-3-yl)amino)pyrazine-2-carbonitrile]
